# Laboratory results as given in patent US11020352B2, “Systems and methods for the fabrication of tablets, including pharmaceutical tablets” (Massachusetts Institute of Technology, priority 2017, dated 2021).
# Assay: Particle size of API and excipients
# Format: physicochemical
# Conditions: API/excipient powder
# Excerpt: Microscopy images showing the morphology of IBU and DIZ particles are shown in FIGS. 29A and 29B, respectively. IBU and DIZ both are fine particles with a d50 of 21.87 μm and 23.12 μm, respectively.
Compound,Particle size d10 [μm],Particle size d50 [μm],Particle size d90 [μm]
"CN1C(=O)CN=C(c2ccccc2)c2cc(Cl)ccc21 [Diazepam (DIZ), Diazepam, reference compound]",5.74,23.12,110.75
OC[C@H]1O[C@@H](O[C@H]2[C@H](O)[C@@H](O)C(O)O[C@@H]2CO)[C@H](O)[C@@H](O)[C@H]1O (some centres unmarked) [Anhydrous lactose],26.03,188.75,425.90
Magnesium stearate,2.76,6.86,15.10
"CC(C)Cc1ccc(C(C)C(=O)O)cc1 (centres unmarked) [Ibuprofen (IBU), Ibuprofen, reference compound]",4.86,21.87,75.31

# Assay: Bulk and flow properties of powders (FT4 Powder Rheometer)
# Format: physicochemical
# Conditions: API/excipient powder
Compound,Compressibility [%],Flow function coefficient (ffc),Bulk density [g/mL]
"CN1C(=O)CN=C(c2ccccc2)c2cc(Cl)ccc21 [Diazepam (DIZ), Diazepam, reference compound]",32.73,2.78,
OC[C@H]1O[C@@H](O[C@H]2[C@H](O)[C@@H](O)C(O)O[C@@H]2CO)[C@H](O)[C@@H](O)[C@H]1O (some centres unmarked) [Anhydrous lactose],13.10,5.69,0.74
Magnesium stearate,38.97,5.18,0.31
"CC(C)Cc1ccc(C(C)C(=O)O)cc1 (centres unmarked) [Ibuprofen (IBU), Ibuprofen, reference compound]",25.07,3.87,0.53
